Key:
Aorta [1] = test: Vasorelaxant activity against norepinephrine-induced contraction in Wistar rat thoracic aorta at 10 uM; type: functional; design: scale not given: the % may be the effect or the level left
Aorta [2] = test: Vasorelaxant activity against norepinephrine-induced contraction in Wistar rat thoracic aorta at 100 uM; type: functional; design: scale not given: the % may be the effect or the level left

SMILES | Activity (Aorta [1]) [%] | Activity (Aorta [2]) [%]
COC(=O)[C@@H]1C[C@]23C4=NC[C@@H](C)[C@]45CC[C@@]2(COC(C)=O)[C@H](CCC2=C3[C@@H]1CC2)[C@H]5O [DAPHMANIDIN A] | 37.5 | 
COC(=O)C1=C2CCC3=C2[C@@]2(C1)C1=NC[C@@H](C)[C@]14CC[C@@]2(COC(C)=O)[C@H](CC3)[C@H]4O [DAPHMANIDIN E] |  | 34.9
COC(=O)C1=C2CC[C@]34CC[C@@H]5[C@@H](O)[C@@]67CC[C@]5(COC(C)=O)[C@](C1)(C6=NC[C@H]7C)[C@]23O4 [DAPHMANIDIN F] | 45.8 | 

Reference: ChEMBL document CHEMBL1157297, “Daphmanidins E and F, alkaloids from Daphniphyllum teijsmannii” (2006)
